Experimental data reported in article PMC4757417, “Functional and Structural Analysis of a β-Glucosidase Involved in β-1,2-Glucan Metabolism in Listeria innocua” (PLoS ONE, 2016).
Where two headings read alike, the source gives them in different places.

Experiments:
[1] = target: T1, Lin1840r (Listeria innocua, UniProt Q92AS9); test: Inhibition kinetics of hydrolytic activity toward pNP-β-Glc; type: biochemical; details: substrate pNP-β-Glc
[2] = target: Aspergillus aculeatus BGL1 (AaBGL1); set-up: method as in PMID 23537284; details: cited from earlier work
[3] = target: T1, Lin1840r; test: Kinetic analysis of hydrolysis of β-linked gluco-oligosaccharides and pNP-β-Glc by WT Lin1840r; type: biochemical; details: for kcat relative to that for Sop2 / kcat relative to those for Sop2 and Lam2 / kcat/Km relative to that for Sop2: WT Lin1840r; for specific activity: Lin1840r, 0.1 mM substrate at 20°C
[4] = test system: JMB19063 (metagenomic GH3 β-glucosidase from compost); set-up: method as in PMID 23580647; details: 0.1 mM substrate, Cel2 at 50°C, estimated from the substrate consumption; cited from earlier work
[5] = test system: Flavobacterium meningosepticum GH3 β-glucosidase (FmBGL); set-up: method as in PMID 11851422; details: cited from earlier work
[6] = test system: Lin1840r D270A mutant; test: Hydrolytic activity of D270A mutant toward pNP-β-Glc
[7] = test system: Lin1840r E473A mutant; test: Hydrolytic activity of E473A mutant toward pNP-β-Glc

T1 sequence (Q92AS9 entry or part of it): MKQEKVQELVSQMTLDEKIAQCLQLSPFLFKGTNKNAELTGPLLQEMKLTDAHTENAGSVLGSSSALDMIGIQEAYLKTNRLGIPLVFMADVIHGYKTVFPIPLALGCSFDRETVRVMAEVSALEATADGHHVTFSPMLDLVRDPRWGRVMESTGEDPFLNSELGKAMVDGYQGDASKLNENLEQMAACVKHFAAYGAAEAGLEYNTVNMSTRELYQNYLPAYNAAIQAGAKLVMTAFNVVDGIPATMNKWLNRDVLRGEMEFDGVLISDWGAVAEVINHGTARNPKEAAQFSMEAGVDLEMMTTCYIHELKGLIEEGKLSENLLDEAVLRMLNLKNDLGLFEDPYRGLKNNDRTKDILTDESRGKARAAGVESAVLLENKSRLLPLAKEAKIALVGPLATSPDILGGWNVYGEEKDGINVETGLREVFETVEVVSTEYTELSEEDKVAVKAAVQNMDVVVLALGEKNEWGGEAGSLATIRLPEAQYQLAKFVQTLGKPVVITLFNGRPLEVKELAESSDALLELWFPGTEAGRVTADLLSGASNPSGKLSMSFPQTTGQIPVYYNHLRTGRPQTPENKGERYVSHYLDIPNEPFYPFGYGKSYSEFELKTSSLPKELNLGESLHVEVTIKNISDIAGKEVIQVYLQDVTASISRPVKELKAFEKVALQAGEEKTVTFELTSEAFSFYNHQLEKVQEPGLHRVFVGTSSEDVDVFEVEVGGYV

OC[C@H]1NC[C@H](O)[C@@H](O)[C@@H]1O [DNJ, 1-deoxynojirimycin]
Ki ([1]; Ki): 290 µM
Ki [2]: 2.4 µM

OC[C@H]1CNC[C@@H](O)[C@@H]1O [IFG, isofagomine D-tartrate]
Ki ([1]; read-out: Ki): 4.1 µM
Ki [2]: 14 µM

OC[C@H]1O[C@@H](O[C@H]2[C@H](O[C@H]3[C@H](O[C@H]4C(O)O[C@H](CO)[C@@H](O)[C@@H]4O)O[C@H](CO)[C@@H](O)[C@@H]3O)O[C@H](CO)[C@@H](O)[C@@H]2O)[C@H](O)[C@@H](O)[C@@H]1O (stereo partly shown) [Sop4]
kcat relative to that for Sop2 [3]: less than one-tenth

OC[C@H]1O[C@@H](O[C@H]2[C@H](O[C@H]3[C@H](O[C@H]4[C@H](O[C@H]5C(O)O[C@H](CO)[C@@H](O)[C@@H]5O)O[C@H](CO)[C@@H](O)[C@@H]4O)O[C@H](CO)[C@@H](O)[C@@H]3O)O[C@H](CO)[C@@H](O)[C@@H]2O)[C@H](O)[C@@H](O)[C@@H]1O (stereo partly shown) [Sop5]
kcat relative to that for Sop2 [3]: less than one-tenth

O=[N+]([O-])c1ccc(O[C@@H]2O[C@H](CO)[C@@H](O)[C@H](O)[C@H]2O)cc1 [pNP-β-Glc, p-nitrophenyl-β-D-glucopyranoside]
specific activity [3]: 1.12 U/mg
specific activity [4]: 11.8 U/mg
Km [5]: 490 µM
kcat [5]: 39.1 s⁻¹
hydrolytic activity [6]: no detectable hydrolytic activity
hydrolytic activity [7]: no detectable hydrolytic activity

cellobiose [Cel2]
specific activity [3]: 8.9 × 10^−4 U/mg
kcat relative to those for Sop2 and Lam2 [3]: less than 1%
kcat/Km relative to that for Sop2 [3]: less than 0.05%
specific activity [4]: 0.077 U/mg
activity lower than toward pNP-β-Glc ([5]; judged from preliminary results): at least 100 times

gentiobiose [Gen2]
kcat relative to those for Sop2 and Lam2 [3]: less than 1%
kcat/Km relative to that for Sop2 [3]: less than 0.05%
